Where “and” joins values, the source holds several entries; their conditions need not be identical. Identical values can stand only once. Like-named read-outs stand apart in the source and are kept apart here.
Columns and labels:
Sj.TRPMMCLZ = Sj.TRPMMCLZ (Schistosoma japonicum, UniProt A0A4Z2D8Z3); assay: Ca2+ reporter assay, Sj.TRPMMCLZ; type: cell-based
Sm.TRPM[H827A]MCLZ = assay: Ca2+ reporter assay, Sm.TRPM[H827A]MCLZ mutant; type: cell-based, Schistosoma mansoni; details: binding pocket mutant
Sm.TRPM[Y864A]MCLZ = assay: Ca2+ reporter assay, Sm.TRPM[Y864A]MCLZ mutant; type: cell-based, Schistosoma mansoni; details: S2 residue mutant
Sm.TRPMMCLZ [1] = target: T1, Sm.TRPMMCLZ (Schistosoma mansoni, UniProt A0A5K4FCC0); assay: Ca2+ reporter assay; type: cell-based; details: Activation of Sm.TRPMMCLZ, EC50, HEK293 cells, cytoplasmic Ca2+ (Fluo-4)
T1 sequence (A0A5K4FCC0 1-1380): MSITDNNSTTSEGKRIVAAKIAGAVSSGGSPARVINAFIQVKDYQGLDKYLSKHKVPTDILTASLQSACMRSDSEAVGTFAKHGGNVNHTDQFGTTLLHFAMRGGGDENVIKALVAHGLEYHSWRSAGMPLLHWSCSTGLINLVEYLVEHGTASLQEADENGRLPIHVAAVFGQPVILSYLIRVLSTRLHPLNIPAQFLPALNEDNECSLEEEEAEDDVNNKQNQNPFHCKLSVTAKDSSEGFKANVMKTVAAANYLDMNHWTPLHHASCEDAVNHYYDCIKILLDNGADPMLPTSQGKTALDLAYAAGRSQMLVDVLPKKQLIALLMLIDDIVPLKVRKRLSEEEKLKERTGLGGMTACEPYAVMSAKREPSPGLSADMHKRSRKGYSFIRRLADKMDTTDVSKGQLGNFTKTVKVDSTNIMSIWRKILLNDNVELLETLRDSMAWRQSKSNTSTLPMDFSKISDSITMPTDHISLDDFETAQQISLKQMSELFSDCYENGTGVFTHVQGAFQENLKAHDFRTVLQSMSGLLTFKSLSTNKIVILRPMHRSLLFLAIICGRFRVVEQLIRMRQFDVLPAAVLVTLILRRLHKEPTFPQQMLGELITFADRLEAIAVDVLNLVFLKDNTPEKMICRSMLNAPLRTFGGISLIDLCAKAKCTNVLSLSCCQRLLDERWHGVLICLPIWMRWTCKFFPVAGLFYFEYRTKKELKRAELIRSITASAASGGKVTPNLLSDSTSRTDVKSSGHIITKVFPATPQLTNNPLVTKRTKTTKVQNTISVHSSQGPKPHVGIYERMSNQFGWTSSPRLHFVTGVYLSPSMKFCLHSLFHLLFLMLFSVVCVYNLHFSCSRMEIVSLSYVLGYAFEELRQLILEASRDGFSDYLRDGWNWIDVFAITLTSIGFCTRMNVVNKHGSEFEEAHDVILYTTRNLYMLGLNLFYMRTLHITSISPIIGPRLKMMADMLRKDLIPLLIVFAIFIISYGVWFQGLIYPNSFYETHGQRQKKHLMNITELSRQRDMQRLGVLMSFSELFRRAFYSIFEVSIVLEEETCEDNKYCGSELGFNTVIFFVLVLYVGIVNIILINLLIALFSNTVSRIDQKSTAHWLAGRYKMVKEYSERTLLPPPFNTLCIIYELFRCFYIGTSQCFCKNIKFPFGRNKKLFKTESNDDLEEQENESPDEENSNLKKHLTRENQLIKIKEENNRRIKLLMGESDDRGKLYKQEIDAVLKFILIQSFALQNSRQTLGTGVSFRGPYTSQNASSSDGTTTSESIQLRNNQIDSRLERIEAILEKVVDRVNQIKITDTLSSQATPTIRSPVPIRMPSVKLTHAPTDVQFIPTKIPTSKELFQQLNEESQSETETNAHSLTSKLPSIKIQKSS

[2] = tested on: HEK293 cells expressing GFP alone; assay: Cell-attached current recordings, HEK293 cells expressing GFP alone; type: cell-based; details: 10 μM
adult S. mansoni worms [3] = details: cited from earlier work
St.TRPMMCLZ = assay: Ca2+ reporter assay, St.TRPMMCLZ; type: cell-based, Schistosoma turkestanicum; details: read-out: Activation of St.TRPMMCLZ, EC50
Sh.TRPMMCLZ = Sh.TRPMMCLZ (Schistosoma haematobium, UniProt A0A922LUV1); assay: Ca2+ reporter assay, Sh.TRPMMCLZ; type: cell-based
Sh.TRPMMCLZ, sequence (A0A922LUV1 1-1380): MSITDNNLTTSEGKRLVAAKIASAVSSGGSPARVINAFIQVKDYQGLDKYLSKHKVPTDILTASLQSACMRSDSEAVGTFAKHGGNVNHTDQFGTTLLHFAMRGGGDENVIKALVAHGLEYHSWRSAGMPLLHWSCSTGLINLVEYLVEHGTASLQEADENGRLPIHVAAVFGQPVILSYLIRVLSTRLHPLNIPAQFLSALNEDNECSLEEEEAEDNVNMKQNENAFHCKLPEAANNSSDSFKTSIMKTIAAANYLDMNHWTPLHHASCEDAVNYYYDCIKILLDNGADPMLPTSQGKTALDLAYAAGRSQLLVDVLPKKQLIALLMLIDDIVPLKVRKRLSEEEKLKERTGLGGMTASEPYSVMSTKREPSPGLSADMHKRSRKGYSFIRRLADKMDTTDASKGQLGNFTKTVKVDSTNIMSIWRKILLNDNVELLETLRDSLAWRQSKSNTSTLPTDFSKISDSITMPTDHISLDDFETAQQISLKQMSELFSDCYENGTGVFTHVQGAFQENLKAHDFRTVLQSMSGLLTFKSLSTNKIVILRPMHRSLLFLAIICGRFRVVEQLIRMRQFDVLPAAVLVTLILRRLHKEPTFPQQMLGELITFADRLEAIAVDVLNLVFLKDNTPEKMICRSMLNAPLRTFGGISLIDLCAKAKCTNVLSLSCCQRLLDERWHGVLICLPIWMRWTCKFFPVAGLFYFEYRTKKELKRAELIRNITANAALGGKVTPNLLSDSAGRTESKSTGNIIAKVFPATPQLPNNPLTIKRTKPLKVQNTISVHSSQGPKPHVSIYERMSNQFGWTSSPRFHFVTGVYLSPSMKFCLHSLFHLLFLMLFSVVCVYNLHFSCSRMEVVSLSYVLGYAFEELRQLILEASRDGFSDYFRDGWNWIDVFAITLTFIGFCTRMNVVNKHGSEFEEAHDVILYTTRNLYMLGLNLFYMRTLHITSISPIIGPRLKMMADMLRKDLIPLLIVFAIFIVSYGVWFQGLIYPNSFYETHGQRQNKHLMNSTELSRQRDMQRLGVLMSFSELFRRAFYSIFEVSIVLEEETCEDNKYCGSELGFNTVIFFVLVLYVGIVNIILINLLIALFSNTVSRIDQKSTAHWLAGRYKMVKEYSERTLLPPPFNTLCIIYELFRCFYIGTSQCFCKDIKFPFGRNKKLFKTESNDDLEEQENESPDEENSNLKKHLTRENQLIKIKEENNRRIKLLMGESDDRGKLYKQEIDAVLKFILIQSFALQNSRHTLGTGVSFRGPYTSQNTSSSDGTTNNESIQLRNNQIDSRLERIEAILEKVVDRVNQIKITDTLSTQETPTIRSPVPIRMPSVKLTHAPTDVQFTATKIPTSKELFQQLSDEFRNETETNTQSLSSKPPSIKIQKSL

Sm.TRPM[E868A]MCLZ = assay: Ca2+ reporter assay, Sm.TRPM[E868A]MCLZ mutant; type: cell-based, Schistosoma mansoni; details: S2 residue mutant
Sm.TRPM[R943A]MCLZ = assay: Ca2+ reporter assay, Sm.TRPM[R943A]MCLZ mutant; type: cell-based, Schistosoma mansoni; details: binding pocket mutant
Sm.TRPMMCLZ [4] = target: T1, Sm.TRPMMCLZ; assay: Cell-attached current recordings, HEK293 cells expressing Sm.TRPMMCLZ and GFP; type: cell-based; details: 10 μM
Sm.TRPMPZQ = Sm.TRPMPZQ (Schistosoma mansoni, UniProt A0A5K4F0X5); assay: Ca2+ reporter assay; type: cell-based
Sb.TRPM[H946Y] = assay: Ca2+ reporter assay, Sb.TRPM[H946Y] mutant; type: cell-based, Schistosoma bovis; details: S4 point mutant
Sm.TRPM[H946A]MCLZ = assay: Ca2+ reporter assay, Sm.TRPM[H946A]MCLZ mutant; type: cell-based, Schistosoma mansoni; details: alanine mutant
adult S. mansoni worms [5] = assay: Adult schistosome movement; type: cell-based, Schistosoma mansoni
[6] = tested on: S. mansoni and S. haematobium infections; details: preliminary clinical evaluation; cited from earlier work
Sm.TRPMMCLZ [Y1038A] = type: cell-based, Schistosoma mansoni; details: 10 μM, cell-attached
juvenile worms = details: ref 7 (PZQ); 12 ((S)-MCLZ); cited from earlier work
Sm.TRPM[Y1117A]MCLZ = assay: Ca2+ reporter assay, Sm.TRPM[Y1117A]MCLZ mutant; type: cell-based, Schistosoma mansoni; details: binding pocket mutant
Sm.TRPMMCLZ [7] = target: T1, Sm.TRPMMCLZ; assay: Confocal Ca2+ imaging, HEK293 cells expressing Sm.TRPMMCLZ; type: cell-based; details: 10 μM
Sh.TRPM[H946Y] = assay: Ca2+ reporter assay, Sh.TRPM[H946Y] mutant; type: cell-based, Schistosoma haematobium; details: S4 point mutant
Sm.TRPM[H831A]MCLZ = assay: Ca2+ reporter assay, Sm.TRPM[H831A]MCLZ mutant; type: cell-based, Schistosoma mansoni; details: binding pocket mutant
S. japonicum worms = details: cited from earlier work
Sb.TRPMMCLZ = Sb.TRPMMCLZ (Schistosoma bovis, UniProt A0A430Q971); assay: Ca2+ reporter assay, Sb.TRPMMCLZ; type: cell-based
Sb.TRPMMCLZ, sequence (A0A430Q971 1-1241): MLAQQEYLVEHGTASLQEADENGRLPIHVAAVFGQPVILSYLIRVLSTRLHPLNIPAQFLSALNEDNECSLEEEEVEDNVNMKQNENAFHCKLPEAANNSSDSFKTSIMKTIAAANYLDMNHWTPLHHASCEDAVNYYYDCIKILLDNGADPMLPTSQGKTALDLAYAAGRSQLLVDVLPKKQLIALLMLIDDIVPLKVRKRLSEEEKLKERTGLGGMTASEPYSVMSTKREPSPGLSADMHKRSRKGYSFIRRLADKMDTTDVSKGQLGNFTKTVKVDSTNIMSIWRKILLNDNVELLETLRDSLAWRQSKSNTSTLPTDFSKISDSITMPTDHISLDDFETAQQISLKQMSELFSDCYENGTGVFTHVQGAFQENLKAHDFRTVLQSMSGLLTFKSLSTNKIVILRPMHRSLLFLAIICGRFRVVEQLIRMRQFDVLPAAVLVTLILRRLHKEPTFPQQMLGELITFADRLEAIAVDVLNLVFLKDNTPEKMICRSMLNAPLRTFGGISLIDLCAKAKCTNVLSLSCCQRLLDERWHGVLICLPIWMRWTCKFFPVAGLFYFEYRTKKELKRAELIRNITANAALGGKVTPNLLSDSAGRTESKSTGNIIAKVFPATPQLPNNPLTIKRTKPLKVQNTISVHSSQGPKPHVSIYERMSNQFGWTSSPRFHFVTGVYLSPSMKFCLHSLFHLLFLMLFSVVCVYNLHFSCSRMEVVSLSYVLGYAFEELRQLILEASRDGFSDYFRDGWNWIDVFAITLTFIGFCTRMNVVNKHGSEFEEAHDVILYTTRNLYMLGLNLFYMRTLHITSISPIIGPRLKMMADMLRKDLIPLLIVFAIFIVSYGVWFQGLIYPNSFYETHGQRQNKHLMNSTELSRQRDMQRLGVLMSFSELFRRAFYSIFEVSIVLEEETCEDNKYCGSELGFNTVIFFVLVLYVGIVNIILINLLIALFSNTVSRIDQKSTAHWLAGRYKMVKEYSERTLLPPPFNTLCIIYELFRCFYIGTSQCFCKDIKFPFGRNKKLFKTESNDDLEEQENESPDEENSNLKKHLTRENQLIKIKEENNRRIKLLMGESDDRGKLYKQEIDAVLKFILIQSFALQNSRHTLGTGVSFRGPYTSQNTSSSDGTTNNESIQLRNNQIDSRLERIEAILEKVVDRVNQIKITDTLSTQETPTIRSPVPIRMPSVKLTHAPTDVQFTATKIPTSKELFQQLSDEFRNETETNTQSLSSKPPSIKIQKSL

Sj.TRPMMCLZ, sequence (A0A4Z2D8Z3 1-1377): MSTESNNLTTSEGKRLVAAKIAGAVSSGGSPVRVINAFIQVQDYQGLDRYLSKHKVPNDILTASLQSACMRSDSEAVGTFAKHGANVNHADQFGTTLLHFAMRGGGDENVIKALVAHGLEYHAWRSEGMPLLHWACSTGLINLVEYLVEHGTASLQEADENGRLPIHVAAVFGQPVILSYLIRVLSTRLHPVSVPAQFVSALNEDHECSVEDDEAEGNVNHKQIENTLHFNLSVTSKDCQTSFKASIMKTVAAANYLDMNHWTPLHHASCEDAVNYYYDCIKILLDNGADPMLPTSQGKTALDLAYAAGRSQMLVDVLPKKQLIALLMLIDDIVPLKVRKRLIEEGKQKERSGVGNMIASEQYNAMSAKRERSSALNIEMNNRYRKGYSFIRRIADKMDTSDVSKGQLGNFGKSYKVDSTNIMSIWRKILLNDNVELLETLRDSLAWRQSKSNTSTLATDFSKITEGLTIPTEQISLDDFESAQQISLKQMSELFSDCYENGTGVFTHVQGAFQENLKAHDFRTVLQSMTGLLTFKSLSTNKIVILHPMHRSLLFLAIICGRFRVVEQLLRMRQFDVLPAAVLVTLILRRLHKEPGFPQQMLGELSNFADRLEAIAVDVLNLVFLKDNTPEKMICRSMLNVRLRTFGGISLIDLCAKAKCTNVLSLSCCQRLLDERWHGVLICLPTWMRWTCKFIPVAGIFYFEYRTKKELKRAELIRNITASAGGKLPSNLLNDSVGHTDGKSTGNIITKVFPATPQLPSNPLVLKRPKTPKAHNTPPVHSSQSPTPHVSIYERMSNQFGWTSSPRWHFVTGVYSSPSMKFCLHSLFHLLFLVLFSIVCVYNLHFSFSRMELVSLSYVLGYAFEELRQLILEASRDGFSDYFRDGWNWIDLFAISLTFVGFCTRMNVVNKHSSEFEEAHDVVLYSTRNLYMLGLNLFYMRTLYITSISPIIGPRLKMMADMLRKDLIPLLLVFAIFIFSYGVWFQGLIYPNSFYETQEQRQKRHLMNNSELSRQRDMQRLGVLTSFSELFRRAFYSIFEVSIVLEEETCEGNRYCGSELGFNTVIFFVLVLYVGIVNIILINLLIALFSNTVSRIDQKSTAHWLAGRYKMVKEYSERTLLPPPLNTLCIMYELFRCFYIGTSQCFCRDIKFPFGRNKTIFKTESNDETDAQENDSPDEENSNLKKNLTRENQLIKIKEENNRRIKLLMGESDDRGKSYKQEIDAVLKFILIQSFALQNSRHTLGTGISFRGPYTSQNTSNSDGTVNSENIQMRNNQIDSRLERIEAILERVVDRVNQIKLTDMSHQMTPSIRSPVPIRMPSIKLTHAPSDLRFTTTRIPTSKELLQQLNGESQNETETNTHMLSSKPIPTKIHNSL

**Q.** With `C[C@@H]1N=C(c2ccccc2Cl)c2cc([N+](=O)[O-])ccc2NC1=O` [(S)-MCLZ, (S)-meclonazepam] as the compound, how does the EC50 (Sj.TRPMMCLZ) read?
**A.** > 50000 nM

**Q.** What about the “Activation of Sm.TRPM[H827A]MCLZ” value (Sm.TRPM[H827A]MCLZ) of the same compound?
**A.** resembled the wildtype channel

**Q.** And the “Activation of Sm.TRPM[Y864A]MCLZ (effect of mutation)” value (Sm.TRPM[Y864A]MCLZ)?
**A.** much less of an effect

**Q.** What about the EC50 (Sm.TRPMMCLZ [1]) of the same compound?
**A.** 1100 nM and ~1000 nM

**Q.** And the “Cells with evoked currents” value [2]?
**A.** 0/10

**Q.** And the “Damage to the worm tegument” value (adult S. mansoni worms [3])?
**A.** pronounced damage to the worm tegument

**Q.** What about the “Time to spastic paralysis of adult S. mansoni worms” value (adult S. mansoni worms [3]) of the same compound?
**A.** < 1 min

**Q.** What about the IC50 (adult S. mansoni worms [3]; read-out: Sensitivity of schistosome worms, IC50) of the same compound?
**A.** 2000 to 3000 nM

**Q.** And the EC50 (St.TRPMMCLZ)?
**A.** > 50000 nM

**Q.** What about the EC50 (Sh.TRPMMCLZ) of the same compound?
**A.** 1400 ± 400 nM

**Q.** And the “Activation of Sm.TRPM[E868A]MCLZ (effect of mutation)” value (Sm.TRPM[E868A]MCLZ)?
**A.** much less of an effect

**Q.** What about the “Activation of Sm.TRPM[R943A]MCLZ” value (Sm.TRPM[R943A]MCLZ) of the same compound?
**A.** little activation

**Q.** And the “Cells with evoked inward current” value (Sm.TRPMMCLZ [4]; holding potential of 60 mV as printed)?
**A.** 17/21

**Q.** What about the “Reversal potential of current-voltage relationship” value (Sm.TRPMMCLZ [4]; voltage ramp, I-V linear) of the same compound?
**A.** ~0 mV

**Q.** And the “Agonist activity at Sm.TRPMPZQ (concentration-response)” value (Sm.TRPMPZQ; HEK293 cells, 1 nM to 100 μM)?
**A.** did not activate

**Q.** What about the “Antagonism of PZQ activation of Sm.TRPMPZQ” value (Sm.TRPMPZQ; competition versus (±)-PZQ (0.6 μM), high concentrations (>30 μM)) of the same compound?
**A.** partially attenuated

**Q.** What about the “Sensitivity of Sb.TRPM[H946Y] relative to wildtype” value (Sb.TRPM[H946Y]) of the same compound?
**A.** lower sensitivity of response

**Q.** What about the “Potency at Sm.TRPM[H946A]MCLZ relative to wildtype” value (Sm.TRPM[H946A]MCLZ) of the same compound?
**A.** slightly increased potency

**Q.** And the “Effect on worm movement (paralysis)” value (adult S. mansoni worms [5]; 1 μM, adult S. mansoni worms, images 1 min after addition)?
**A.** rapid, spastic paralysis

**Q.** And the IC50 (adult S. mansoni worms [5]; Schistosoma mansoni, read-out: Inhibition of motility, IC50)?
**A.** 1540 ± 90 nM

**Q.** And the “Clinical outcome of infection” value [6]?
**A.** cured S. mansoni and S. haematobium infections

**Q.** And the “Side effects in subjects” value [6]?
**A.** dose-dependent drowsiness, dizziness, slurred speech, ataxia, reduced mental alertness, muscle weakness, hypotension, and bradycardia

**Q.** And the “Current response in pore mutant Sm.TRPMMCLZ [Y1038A]” value (Sm.TRPMMCLZ [Y1038A])?
**A.** strongly attenuated

**Q.** What about the “Efficacy against juvenile / immature worms” value (juvenile worms) of the same compound?
**A.** displays efficacy against juvenile worms

**Q.** What about the EC50 (St.TRPM[Y940H]MCLZ) of the same compound?
**A.** 800 ± 200 nM

**Q.** And the “Activation of Sm.TRPM[Y1117A]MCLZ” value (Sm.TRPM[Y1117A]MCLZ)?
**A.** little activation

**Q.** What about the “Ca2+ signals by confocal imaging in cells expressing Sm.TRPMMCLZ” value (Sm.TRPMMCLZ [7]) of the same compound?
**A.** sustained Ca^2+ transients

**Q.** What about the “Sensitivity of Sh.TRPM[H946Y] relative to wildtype” value (Sh.TRPM[H946Y]) of the same compound?
**A.** lower sensitivity of response

**Q.** And the “Activation of Sm.TRPM[H831A]MCLZ” value (Sm.TRPM[H831A]MCLZ)?
**A.** little activation

**Q.** What about the “Activity against S. japonicum worms” value (S. japonicum worms) of the same compound?
**A.** poorly active

**Q.** What about the EC50 (Sb.TRPMMCLZ) of the same compound?
**A.** 1300 ± 300 nM
